This note sets out measurements from article PMC12027554, “Inhibition of ABCG2 by SCO-101 Enhances Chemotherapy Efficacy in Cancer” (International Journal of Molecular Sciences, 2025).

For assay [1], the system named is HT29SN-38 cells. The experiment in a line: Cellular dye efflux assay (Hoechst 33342), resistant cells. The class given is cell-based, human. The settings on record: SCO-101 20 µM, Ko-143 1 µM, PSC833 1 µM. Here is the method:
(§1) Twenty-four hours before the experiments, cells were seeded into 96-well Nunclon^TM plates at a density of 6000 (HT29), 7000 (PANC-1) or 8000 (LoVo) cells/well. The following day, cells were treated in triplicate with the relevant drugs at the indicated concentrations for 1 h. Next, 5 μg/mL Hoechst 33342 was added to the wells, and plates incubated at 37 °C for 30 min^−1 h. Cells were washed with cold PBS, treatments re-added and plates re-incubated at 37 °C for 30 min to 1 h. Plates were analyzed using a Celigo® (Nexcelom Bioscience, Lawrence, MA, USA) imaging cytometer. Data are expressed as percentages of fluorescence intensity, calculated through the following formula: % fluorescence intensity=Mean fluorescence intensity of sample/Mean fluorescence intensity of parental control×100
(§2) Fluorescent images were captured with an Olympus® IX71/TH4-200 microscope equipped with an Olympus® DP72 camera (Shinjuku, Tokyo, Japan), and cells were seeded at a 1.5 × 10^5 cells/well density and treated as described above.

In assay [2] the test system is HT29PAR cells. The experiment in a line: Cellular dye efflux assay (Hoechst 33342), parental cells. The assay is classed as cell-based, human. The settings on record: SCO-101 20 µM, Ko-143 1 µM. Here is the method: as §1, §2
Assay [3] relates to HT29SN-38 cells. The experiment in a line: 3H-SN-38 uptake in cell monolayers. The class given is cell-based, human. The following applies: HT29SN-38 monolayers; for cellular accumulation of 3H-SN-38: SCO-101 25 µM, Ko-143 0.5 µM, ZSQ 0.5 µM, vs control (HBSS). How it is done: Cells were seeded at a density of 1.8 × 10^4 cells/well in 96-well plates and sub-cultured for 48 h. Drugs were dissolved in HBSS transport buffer (HBSS, 0.05% BSA, 10 mM HEPES, pH 7.4) at different concentrations. All treatments were investigated in technical triplicates. On the day of the experiments, the culture medium was exchanged with 100 μL transport buffer and cells incubated for 15 min at 37 °C. Next, the blank transport buffer was exchanged with 50 μL transport buffer containing the different compounds (2X of final concentrations) and incubated for an additional 15 min at 37 °C. The uptake experiment was started by adding 50 μL of 2 μCi/mL ^3H-SN38 and stopped after 15 min of incubation at 37 °C by removing the transport buffer from all wells. Cell monolayers were washed twice by adding/removing ice-cold transport buffer and lysed for 15 min at RT in 100 μL 0.1% TritonX-100. Cell lysates were transferred to scintillation vials containing 2 mL of scintillation fluid (Ultima Gold, PerkinElmer). Each well was washed with 100 μL purified water (milliQ), which was also transferred to respective scintillation vials. The radioactivity in each scintillation vial was measured by means of scintillation counting (Tri-Carb 2910 TR, PerkinElmer, Waltham, MA, USA).

The test system of assay [4] is HT29SN-38 cells. The experiment in a line: Cell viability assay (MTT / CCK-8), SN-38-resistant HT29. The class given is cell-based, human. Here is the method:
(§3) Cells were seeded at a density of 0.2–1 × 10^4 cells/well into 96-well plates. One day after seeding, treatments were performed in triplicate for 72 h, or as otherwise indicated in the relevant panel/figure legend and kept at 37 °C/5% CO2. Growth medium alone (“untreated” cells) or DMSO was used as a control.
(§4) For MTT assays, media were replaced at the final timepoint with 100 μL of 1:10 MTT reagent (0.5 mg/mL in PBS) diluted in growth medium, and plates were incubated for 3 h. A total of 100 μL/well of stop buffer (50 g Sodium Dodecyl Sulfate, 245 mL ddH2O, 5 mL 1N HCl) was added and plates incubated for 24 h to let colored formazan crystals develop. Optical densities (ODs) were measured with a PowerWave^TM Microplate spectrophotometer (BioTek, Winooski, VT, USA) at 570 nm and 670 nm (background).
(§5) For CCK-8 assays, 100 μL of 1:10 CCK-8 reagent (pevonedistat-treated HT29 cells) diluted in medium was added to each well and cells incubated for 1–2 h at 37 °C. OD values were measured at 450 nm with a VersaMax microplate spectrophotometer (Molecular Devices, San Jose, CA, USA).
(§6) Background values were subtracted prior to further analysis. The percentage of cell viability was expressed as relative values versus untreated cells as determined by the various assays. EC50/IC50 values were calculated using GraphPad Prism (v10.4.1) and the in-built non-linear regression [log (inhibitor) vs. response—variable slope (four parameters)] calculation. For determination of synergy scores, the online tool SynergyFinder+ (https://synergyfinder.org access date 15 February 2025) was employed following 4 × 4- or 6 × 6-matrix dose-escalation cell viability experiments. Doses of drugs are indicated in the relevant figure legends and ranges have been chosen based on the response of cells to single-drug dose-dependent experiments. Synergy scores were calculated using the ZIP model, which takes the advantages of both the Loewe additivity and the Bliss independence models, aiming at a systematic assessment of various types of drug interaction patterns that may arise in a high-throughput drug combination screening.

Assay [5] relates to HT29PAR cells. The experiment in a line: Cell viability assay (MTT / CCK-8), drug-sensitive HT29. The assay is classed as cell-based, human. Here is the method: as §3, §4, §5, §6
The subject of the next assay is HL-60ABCG2 cells. The experiment in a line: Cell viability assay, ABCG2-expressing HL-60. The class given is cell-based. The following applies: Homo sapiens, 96 h. How it is done:
as §3, §6

The next assay has as its system HL-60PAR cells. The experiment in a line: Cell viability assay, HL-60 parental. The following applies: Homo sapiens, 96 h. The assay is classed as cell-based. Here is the method:
as §3, §6

SMILES strings stand for the structures. pEC50, pIC50: −log10 of the molar value.

Consider `COc1ccc2c3c([nH]c2c1)[C@H](CC(C)C)N1C(=O)[C@H](CCC(=O)OC(C)(C)C)NC(=O)[C@@H]1C3` [Ko-143], for which the H33342 dye accumulation result in the assay with HT29SN-38 cells [1] was “restored”; in the assay on HT29PAR cells [2], “No change”. Also, the “cellular accumulation of 3H-SN-38” value with HT29SN-38 cells [3] is listed as “increased”. Moreover, in the assay with HT29SN-38 cells [3] (read-out: EC50, 3H-SN-38 uptake (regarded as IC50 of ABCG2 inhibition)), the pEC50 is 7.15.

For the compound `C/C=C/C[C@@H](C)C(=O)[C@H]1C(=O)N[C@@H](C(C)C)C(=O)N(C)CC(=O)N(C)[C@@H](CC(C)C)C(=O)N[C@@H](C(C)C)C(=O)N(C)[C@@H](CC(C)C)C(=O)N[C@@H](C)C(=O)N[C@H](C)C(=O)N(C)[C@@H](CC(C)C)C(=O)N(C)[C@@H](CC(C)C)C(=O)N(C)[C@@H](C(C)C)C(=O)N1C` [PSC833], the H33342 dye accumulation result with HT29SN-38 cells [1] is “No change”.

In the case of `CCc1c2c(nc3ccc(O)cc13)-c1cc3c(c(=O)n1C2)COC(=O)[C@]3(O)CC` [SN-38, reference compound], the pIC50 in the assay with HT29SN-38 cells [4] (72 h) was 5.14; in the assay with HT29PAR cells [5] (72 h), 6.80. The “cell viability after 24 h single treatment and drug washout” value in the assay on HT29SN-38 cells [4] (SCO-101 15 μM or SN-38 0.5 μM alone, washout 48 h or 120 h) is recorded as “did not affect cell viability”.

As for `O[C@@H](COc1cccc2ncccc12)CN1CCN([C@@H]2c3ccccc3[C@@H]3[C@H](c4ccccc42)C3(F)F)CC1` [ZSQ], the “cellular accumulation of 3H-SN-38” value in the assay with HT29SN-38 cells [3] is recorded as “did not alter”.

With `O=C1c2c(O)ccc(O)c2C(=O)c2c(NCCNCCO)ccc(NCCNCCO)c21` [mitoxantrone], the negative-log IC50 (pIC50) in the assay on HL-60ABCG2 cells was 6.24; with HL-60PAR cells it was 7.40.

`NS(=O)(=O)OC[C@@H]1C[C@@H](n2ccc3c(N[C@H]4CCc5ccccc54)ncnc32)C[C@@H]1O` [pevonedistat]: the pIC50 with HT29SN-38 cells [4] (Homo sapiens, HT-29, 72 h) was 5.49; in the assay on HL-60ABCG2 cells, below 6.00; in the assay on HT29PAR cells [5] (Homo sapiens, HT-29, 72 h), 6.89; in the assay with HL-60PAR cells, 8.27.

Regarding `CC[C@@]1(O)C(=O)OCc2c1cc1n(c2=O)Cc2cc3c(CN(C)C)c(O)ccc3nc2-1` [topotecan], the negative-log IC50 (pIC50) is 5.87 with HT29SN-38 cells [4] (Homo sapiens, HT-29, 72 h); below 6.00 in the assay with HL-60ABCG2 cells; 7.22 in the assay on HT29PAR cells [5] (Homo sapiens, HT-29, 72 h).

As a reminder, the pEC50 is the negative decadic logarithm of the EC50, by convention in mol/L. As a reminder, the pIC50 is the IC50 on a negative log10 scale, so that one unit is a factor of ten.
